Results: US12011423B2, “S-alkylisothiouronium derivatives for treating uterine hypercontractility disorders” (FORAVISET LTD., priority 2007, dated 2024)

Key:
[1] = test system: women with uterine myoma; conditions: unpublished studies; cited from earlier work
[2] = test system: women showing abnormal uterine bleeding; assay: Effect of vaginal suppositories on abnormal uterine bleeding in women (Example 1); assay type: in vivo
Method: Thirty-six women showing abnormal uterine bleeding were enrolled to this study. Each woman received one suppository of S-ethylisothiouronium diethylphosphate (100 mg of S-ethylisothiouronium diethylphosphate in 2 gr of Suppocire®, a suppository base obtained by esterification of hydrogenated palm oil and hydrogenated palm kelnel oil) per day, applied in the posterior vaginal fornix.

[3] = test system: Wistar male rats; assay: Tail-flick test, pain under thermal stimulation (Example 2); assay type: in vivo
Method: The study was carried out on Wistar male rats (body weight of 210 g). The experiment was carried out on 30 rats divided into 3 groups of 10 animals each. The presence of pain was determined using the Tail-flick test, This method is based on monitoring the reaction time for the typical tail-withdrawal reflex as a result of thermal stimulation. First, the temperature (° C.) at which rat tails was withdrawn was determined, thus identifying the thermal level that caused pain. One hour later, the rats were injected intraperitoneally with S-ethylisothiouronium diethylphosphate in 0.9% NaCl. One group (10 rats) was injected with 5 mg/kg body weigh of S-ethylisothiouronium diethylphosphate, whilst the second and third groups (10 rats each) were injected with 10 and 20 mg/kg body weight, respectively.

[4] = test system: women suffering from primary or secondary dysmenorrhea; assay: Effect of vaginal suppositories on pain in primary or secondary dysmenorrhea (Example 3); assay type: in vivo
Method: Vaginal suppositories containing S-ethylisothiouronium diethylphosphate (100 mg each/day) were applied to 28 women suffering from primary or secondary dysmenorrhea.

[5] = test system: women patients having primary dysmenorrhea; assay: Effect on pelvic pains in women having primary dysmenorrhea (Example 4, group II); assay type: in vivo; conditions: intravaginal administration
Method: Sixty-ninewomen having symptomatic uterine myoma or primary dysmenorrhea were enrolled to this study. The women were treated with vaginal suppositories of S-ethylisothiouronium diethylphosphate (100 mg of S-ethylisothiouronium diethylphosphate in 2 gr of Suppocire® per day, applied in the posterior vaginal fornix).
In addition, the effect of S-ethylisothiouronium diethylphosphate on pelvic pains was evaluated in 38 women patients having primary dysmenorrhea (group II). The average age of the patients was 24.8±4.1 years. All the 38 patients had experienced at least 6 painful menstrual cycles prior to their inclusion in the study. The duration of the menstrual cycle in all cases was normal, i.e., of 21-35 days, with the menstruation lasting 3-7 days. Further, none of the patients was treated with oral contraceptives for at least 6 months before enrollment. The patients were eligible for the study following the confirmation of normal hematological and biochemical indexes and exclusion of antecedent gynecological surgical procedures.
To evaluate the intensity of pain, the patients reported the pain intensity at the beginning of the study, during, and at the termination of the medical management using one of the following terms: absence of pain; greatly diminished pain; slightly diminished pain; similar pain as of the previous treatment; and intensification of pain. […]

[6] = test system: women with uterine myoma; assay: S-ethylisothiouronium bromide in abnormal uterine hemorrhages and pelvic pains associated with uterine myoma (unpublished studies) and comparison; assay type: in vivo; conditions: found to be preferable over S-ethylisothiouronium bromide
[7] = 24 hours after beginning of treatment, 100 mg/day vaginal suppository, 28 women

Compound	duration of effect and side effects [1]	effect on abnormal uterine hemorrhages and pelvic pains [1]	complete disappearance of pathological uterine bleeding ([2]; after six suppositories (100 mg each), intravaginally, one per day, 36 women)	patients reporting menstrual cycles with a normal duration and interval ([2]; over the course of three consecutive months) [%]	intensity of bleeding moderately reduced, full haemostatic effect not reached ([2]; patients, vaginal suppositories 100 mg per day) [%]	Haemostasis obtained, on average, time from the start of treatment ([2]; vaginal suppositories 100 mg per day) [h]	increase of thermal level for tail withdrawal ([3]; 5 mg/kg intraperitoneal)	thermal level for tail withdrawal after injection ([3]; 5 mg/kg intraperitoneal, before injection 73+1.26° C.)	increase of pain reception level under thermal stimulation ([3]; 10 mg/kg body weight intraperitoneal)	pain reception level under thermal stimulation after injection ([3]; 10 mg/kg body weight intraperitoneal, before injection 73+3.63° C.)	increase of pain reception level ([3]; 20 mg/kg body weight intraperitoneal) [%]	pain reception level after injection ([3]; 20 mg/kg body weight intraperitoneal, before injection 73.5±2.07) [°C]	analgesic activity (conclusion in words) ([3]; tail-flick test, 5-20 mg/kg intraperitoneal)	complete disappearance of the pain [4, 7] [%]	significant decrease in the intensity of the pain [4, 7]	eradication of pain ([4]; 48 hours after beginning of treatment, after a second suppository)	treated women in whom uterine cramps were abrogated [5]	comparison with S-ethylisothiouronium bromide [6]
Br.CCSC(=N)N [S-ethylisothiouronium bromide]	short-duration effect accompanied with side effects such as digestive disturbances and complications	effective in reducing the abnormal uterine hemorrhages and pelvic pains	–	–	–	–	–	–	–	–	–	–	–	–	–	–	–	–
S-ethylisothiouronium diethylphosphate	–	–	87.8 % of cases	94.4	12.2	40 to 58	about 21%	89.01+5.11 °C	about 31%	96.4+3.98 °C	59	16.8±9.51	potent analgesic agent	39.3	60.7 % of the cases	fully eradicated in all treated women	about 95%	longer bioactivity, higher efficacy, and little or no side-effects
